Data as given in PMC7937321 (Genes and Environment, 2021).

Key:
[1] = tested on: L5178Y mouse lymphoma cells; details: ref [27], [46]-[53], Table 3, cited from earlier work
[2] = tested on: human lymphoblastoid TK6 cells, thymidine kinase gene; assay: TK gene mutation assay (TK6 assay, OECD TG490); details: for MF: graph data
Description: In principle, this collaborative study conducted the treatment of test substances, the dose finding, and the main test of TK6 assays, according to the OECD Guideline TG490 [17]. […] Briefly, test substances were dissolved in an appropriate solvent (DMSO or ethanol) and then serially diluted to prepare final concentrations. […] The 4 h and 24 h treatments were conducted by shaking and static exposures, respectively. After treatment with test substances, cells were centrifuged (1000 rpm, 5 min), supernatants were removed, and cells were washed with a serum-free medium or Hank’s Balanced Salt Solution. After centrifugation (1000 rpm, 5 min) to remove the supernatant, cells (2 × 10^7 cells) were dispersed in an RPMI medium containing 10% serum, and cell concentration was measured. Treated cells were cultured at 37 °C with 5% CO2 condition and used for TK6 assays. At that time, to calculate the cloning efficiency (CE) (Eq. 1), the cells were cultured in a 96-well microplate at a concentration of about 1.6 cells/well for 2 weeks.
The TK6 assay is conducted between 20 and 10% RS0 as a maximum dose if cytotoxicity is observed. If no precipitate or limiting cytotoxicity was observed, the maximum dose was the lowest concentration among 10 mM, 2 mg/mL, or 2 μL/mL of the test substance. When the main TK6 assay was difficult to conduct under the condition of RS0 values from 20 to 10%, the test was conducted between 20 and 10% relative total growth (RTG), described later, as a maximum dose.
On the third day of culture, CE3 plates for determining plating efficiency and mutant frequency (MF) plates for mutation detection were prepared. CE3 plates were seeded in 96-well microplates at a concentration of about 1.6 cells/well. The MF plates were seeded in 96-well microplates at 40,000 cells/well in the presence of 3 μg/mL of trifluorothymidine (Sigma Aldrich).
Mutant colonies in MF plates were calculated using Eq. 7 using the Poisson distribution. EW was the number of wells without colonies, and TW was the total number of wells. N was the average number of cells per well (N = 40,000 in this study). The data were statistically analyzed by Omori’s method, a modified Dunnett’s procedure for identifying clear negatives, a Simpson–Margolin procedure for detecting downturn data, and a trend test to evaluate the dose dependency [42, 43]. The acceptability criterion for the test was that the MF value of the positive control group of each laboratory was increased with statistical significance compared with that of the concurrent negative control group.

[3] = 24 h treatment, -S9 mix, 173.70 μg/mL
[4] = 24 h treatment, -S9 mix, 277.90 μg/mL
[5] = 24 h treatment, -S9 mix, 444.70 μg/mL
[6] = 24 h treatment, -S9 mix, 711.5 μg/mL
[7] = 24 h treatment, -S9 mix, 1138.4 μg/mL
[8] = 24 h treatment, -S9 mix, 1821.4 μg/mL
[9] = Long-term treatment without metabolic activation
[10] = Short treatment, +S9 mix, dose 173.7 μg/mL
[11] = Short treatment, +S9 mix, dose 277.9 μg/mL
[12] = Short treatment, +S9 mix, dose 445 μg/mL
[13] = Short treatment, +S9 mix, dose 712 μg/mL
[14] = Short treatment, +S9 mix, dose 1138 μg/mL
[15] = Short treatment, +S9 mix, dose 1821 μg/mL
[16] = Short treatment, -S9 mix, dose 173.70 μg/mL
[17] = Short treatment, -S9 mix, dose 277.90 μg/mL
[18] = Short treatment, -S9 mix, dose 444.70 μg/mL
[19] = Short treatment, -S9 mix, dose 711.5 μg/mL
[20] = Short treatment, -S9 mix, dose 1138.4 μg/mL
[21] = Short treatment, -S9 mix, dose 1821.4 μg/mL

Nc1cc([N+](=O)[O-])ccc1C(=O)O [4-Nitroanthranilic acid]
MLA (TK gene locus), With S9 ([1]; with S9): Pos | MLA (TK gene locus), Without S9 ([1]; without S9): Equivocal^d | TK6 assay result (mutant frequency increase, judgment) ([2]; 4h treatment (+S9)): no increase in mutation frequency | TK6 assay result (mutant frequency increase, judgment) ([2]; 4h treatment (+S9), listed as 4-nitroanthranilic acid): negative | TK6 assay result (mutant frequency increase, judgment) ([2]; 4h treatment (-S9)): no increase in mutation frequency | TK6 assay result (mutant frequency increase, judgment) ([2]; 4h treatment (-S9), listed as 4-nitroanthranilic acid): negative | TK mutation assay, Long term ([2]; 24 h, without S9): Pos | TK6 assay result (mutant frequency increase, judgment) ([2]; 24h treatment (-S9)): statistically significant increase in mutation frequency | TK6 assay result (mutant frequency increase, judgment) ([2]; 24h treatment (-S9), listed as 4-nitroanthranilic acid): positive | %SG [2, 3]: 68.7% | Mut. freq. (×10-6) N-MF [2, 3]: 1.8 ×10-6 | Mut. freq. (×10-6) S-MF [2, 3]: 3.9 ×10-6 | Mut. freq. (×10-6) T-MF [2, 3]: 5.6 ×10-6 | %SG [2, 4]: 61.0% | Mut. freq. (×10-6) N-MF [2, 4]: 3.1 ×10-6 | Mut. freq. (×10-6) S-MF [2, 4]: 4.8 ×10-6 | Mut. freq. (×10-6) T-MF [2, 4]: 7.9 ×10-6 | %SG [2, 5]: 63.1% | Mut. freq. (×10-6) N-MF [2, 5]: 2.6 ×10-6 | Mut. freq. (×10-6) S-MF [2, 5]: 4.4 ×10-6 | Mut. freq. (×10-6) T-MF [2, 5]: 7.0 ×10-6 | %SG [2, 6]: 72.4% | Mut. freq. (×10-6) N-MF [2, 6]: 3.0 ×10-6 | Mut. freq. (×10-6) S-MF [2, 6]: 7.8 ×10-6 | Mut. freq. (×10-6) T-MF [2, 6]: 10.7 ×10-6 | %SG [2, 7]: 57.1% | Mut. freq. (×10-6) N-MF [2, 7]: 4.1 ×10-6 | Mut. freq. (×10-6) S-MF [2, 7]: 5.5 ×10-6 | Mut. freq. (×10-6) T-MF [2, 7]: 9.7 ×10-6 | %SG [2, 8]: 68.5% | Mut. freq. (×10-6) N-MF [2, 8]: 4.4 ×10-6 | Mut. freq. (×10-6) S-MF [2, 8]: 9.5 ×10-6 | Mut. freq. (×10-6) T-MF [2, 8]: 13.9 ×10-6 | Dunnett type test, test statistic [2, 9]: 2.990 | Trend test, test statistic [2, 9]: 4.178 | %SG [2, 10]: 38.9% | Mut. freq. (×10-6) N-MF [2, 10]: 6.7 ×10-6 | Mut. freq. (×10-6) S-MF [2, 10]: 4.3 ×10-6 | Mut. freq. (×10-6) T-MF [2, 10]: 10.9 ×10-6 | %SG [2, 11]: 40.2% | Mut. freq. (×10-6) N-MF [2, 11]: 6.1 ×10-6 | Mut. freq. (×10-6) S-MF [2, 11]: 4.1 ×10-6 | Mut. freq. (×10-6) T-MF [2, 11]: 10.3 ×10-6 | %SG [2, 12]: 44.7% | Mut. freq. (×10-6) N-MF [2, 12]: 4.6 ×10-6 | Mut. freq. (×10-6) S-MF [2, 12]: 3.7 ×10-6 | Mut. freq. (×10-6) T-MF [2, 12]: 8.4 ×10-6 | %SG [2, 13]: 49.2% | Mut. freq. (×10-6) N-MF [2, 13]: 5.5 ×10-6 | Mut. freq. (×10-6) S-MF [2, 13]: 5.3 ×10-6 | Mut. freq. (×10-6) T-MF [2, 13]: 10.7 ×10-6 | %SG [2, 14]: 37.9% | Mut. freq. (×10-6) N-MF [2, 14]: 6.4 ×10-6 | Mut. freq. (×10-6) S-MF [2, 14]: 3.9 ×10-6 | Mut. freq. (×10-6) T-MF [2, 14]: 10.3 ×10-6 | %SG [2, 15]: 43.4% | Mut. freq. (×10-6) N-MF [2, 15]: 6.4 ×10-6 | Mut. freq. (×10-6) S-MF [2, 15]: 4.9 ×10-6 | Mut. freq. (×10-6) T-MF [2, 15]: 11.3 ×10-6 | %SG [2, 16]: 60.5% | Mut. freq. (×10-6) N-MF [2, 16]: 3.6 ×10-6 | Mut. freq. (×10-6) S-MF [2, 16]: 5.5 ×10-6 | Mut. freq. (×10-6) T-MF [2, 16]: 9.0 ×10-6 | %SG [2, 17]: 56.6% | Mut. freq. (×10-6) N-MF [2, 17]: 3.8 ×10-6 | Mut. freq. (×10-6) S-MF [2, 17]: 4.9 ×10-6 | Mut. freq. (×10-6) T-MF [2, 17]: 8.7 ×10-6 | %SG [2, 18]: 46.7% | Mut. freq. (×10-6) N-MF [2, 18]: 4.2 ×10-6 | Mut. freq. (×10-6) S-MF [2, 18]: 3.7 ×10-6 | Mut. freq. (×10-6) T-MF [2, 18]: 7.9 ×10-6 | %SG [2, 19]: 48.9% | Mut. freq. (×10-6) N-MF [2, 19]: 4.3 ×10-6 | Mut. freq. (×10-6) S-MF [2, 19]: 4.2 ×10-6 | Mut. freq. (×10-6) T-MF [2, 19]: 8.5 ×10-6 | %SG [2, 20]: 52.7% | Mut. freq. (×10-6) N-MF [2, 20]: 3.7 ×10-6 | Mut. freq. (×10-6) S-MF [2, 20]: 4.1 ×10-6 | Mut. freq. (×10-6) T-MF [2, 20]: 7.8 ×10-6 | %SG [2, 21]: 65.9% | Mut. freq. (×10-6) N-MF [2, 21]: 3.0 ×10-6 | Mut. freq. (×10-6) S-MF [2, 21]: 5.9 ×10-6 | Mut. freq. (×10-6) T-MF [2, 21]: 9.0 ×10-6 | Dunnett type test, test statistic ([2]; Short-term treatment with metabolic activation): 0.732 | Dunnett type test, test statistic ([2]; Short-term treatment without metabolic activation): 0.791 | MF ([2]; 24 h, -S9 mix, 173.70 μg/mL): 5.6 | MF ([2]; 24 h, -S9 mix, 277.90 μg/mL): 7.9 | MF ([2]; 24 h, -S9 mix, 444.70 μg/mL): 7.0 | MF ([2]; 24 h, -S9 mix, 711.5 μg/mL): 10.7 | MF ([2]; 24 h, -S9 mix, 1138.4 μg/mL): 9.7 | MF ([2]; 24 h, -S9 mix, 1821.4 μg/mL): 13.9 | MF [2, 10]: 10.9 | MF [2, 11]: 10.3 | MF ([2]; Short treatment, +S9 mix, dose 444.7 μg/mL): 8.4 | MF ([2]; Short treatment, +S9 mix, dose 711.5 μg/mL): 10.7 | MF ([2]; Short treatment, +S9 mix, dose 1138.4 μg/mL): 10.3 | MF ([2]; Short treatment, +S9 mix, dose 1821.4 μg/mL): 11.3 | MF [2, 16]: 9.0 | MF [2, 17]: 8.7 | MF [2, 18]: 7.9 | MF [2, 19]: 8.5 | MF [2, 20]: 7.8 | MF [2, 21]: 9.0 | TK mutation assay, With S9 ([2]; short-term 4 h, with rat liver S9): Neg | TK mutation assay, Without S9 ([2]; short-term 4 h, without S9): Neg
